Experimental data from PubChem BioAssay (NCI).
“And” between values parts separate entries of the source, which are not always exact repeats. Equal entries are not always repeated.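 Grown in 96-well plates, cells were treated for 48 hours with each compound at five concentrations. Insufficient inhibition: endpoint recorded as highest concentration tested. GI50 is the concentration that inhibits growth by half. TGI: total growth inhibition.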

What was measured:
Assay in all cases: NCI tumour cell line growth inhibition, 48 h
SK-OV-3 ovarian = tested on: SK-OV-3 ovarian
NCI/ADR-RES ovarian = tested on: NCI/ADR-RES ovarian
SW-620 colon = tested on: SW-620 colon
MOLT-4 leukemia = tested on: MOLT-4 leukemia
SNB-19 CNS = tested on: SNB-19 CNS
SK-MEL-28 melanoma = tested on: SK-MEL-28 melanoma
HCT-116 colon = tested on: HCT-116 colon
EKVX NSCLC = tested on: EKVX NSCLC
SF-295 CNS = tested on: SF-295 CNS
OVCAR-3 ovarian = tested on: OVCAR-3 ovarian

| Structure (SMILES) | GI50 (SK-OV-3 ovarian) | TGI (SK-OV-3 ovarian) | GI50 (NCI/ADR-RES ovarian) | TGI (NCI/ADR-RES ovarian) [µM] | GI50 (SW-620 colon) | TGI (SW-620 colon) | GI50 (MOLT-4 leukemia) | TGI (MOLT-4 leukemia) | GI50 (SNB-19 CNS) | TGI (SNB-19 CNS) | GI50 (SK-MEL-28 melanoma) | TGI (SK-MEL-28 melanoma) | GI50 (HCT-116 colon) | TGI (HCT-116 colon) | GI50 (EKVX NSCLC) | TGI (EKVX NSCLC) | GI50 (SF-295 CNS) | TGI (SF-295 CNS) | GI50 (OVCAR-3 ovarian) | TGI (OVCAR-3 ovarian) |
| --- | --- | --- | --- | --- | --- | --- | --- | --- | --- | --- | --- | --- | --- | --- | --- | --- | --- | --- | --- | --- |
| CC1(C)N=C(N)N=C(N)N1c1ccc(OCCCNC(=O)Nc2ccc(S(=O)(=O)F)cc2)c(Cl)c1 | 8.83 µM | > 100 µM | 98.5 µM | > 100 | 0.0778 µM | > 100 µM | 0.386 µM | > 100 µM | 1.08 µM | > 100 µM | 1.74 µM | > 100 µM | 0.0613 µM | > 100 µM | 0.874 µM | > 100 µM | 0.504 µM | > 100 µM | 1.55 µM | > 100 µM |
| Cc1ccc(NC(=O)c2ccc(CN3CCN(C)CC3)cc2)cc1Nc1nc(-c2cccnc2)cs1 | 19.1 µM and > 10 µM | 40 µM and > 10 µM | 22.7 µM and 7.39 µM | > 86.7 | 5.68 µM and 4.58 µM | 19.5 µM and > 10 µM | 3.11 µM and 2.67 µM | 18.3 µM and 9.64 µM | 14.4 µM and 6.37 µM | 29.7 µM and > 10 µM | 12 µM and 2.66 µM | 24.5 µM and 8.57 µM | 3.74 µM and 3.05 µM | 14.8 µM and > 10 µM | 13.6 µM and > 10 µM | 29.8 µM and > 10 µM | 3.3 µM and 1.92 µM | 13.8 µM and 5.48 µM | 11.7 µM and 3.5 µM | 24.3 µM and > 10 µM |
| CCOC(=O)c1noc2c1CCc1c-2cn(Cc2ccc(OC)cc2)c1-c1cc(OC)c(OC)c(OC)c1 | 5.23 µM | > 100 µM | 3.52 µM | > 100 | 0.497 µM | > 100 µM | 2.7 µM | > 100 µM | 0.668 µM | > 100 µM | 1.9 µM | > 100 µM | 0.399 µM | > 100 µM | 3.92 µM | > 100 µM | 3.02 µM | > 100 µM | 0.37 µM | 10.6 µM |
| Cn1cc(-c2ccc3nc(-c4ccc(CC(=O)Nc5cc(C(C)(C)C)no5)cc4)cnc3c2)cn1 | 0.0938 µM | 0.712 µM | 0.0612 µM | > 3 | 0.0477 µM | > 3 µM | 0.102 µM | > 3 µM | > 1.48 µM | > 3 µM | 0.104 µM | > 3 µM | 0.029 µM | > 3 µM | 0.143 µM | > 3 µM | 0.0563 µM | > 3 µM | 0.0592 µM | > 3 µM |
| O=S(=O)(NCCCNc1cc(-c2cn(-c3ccccc3)nc2-c2cccc(O)c2)ccn1)c1ccc(C(F)(F)F)cc1 | 2.39 µM | 5.95 µM | 2.45 µM | 7.13 | 1.78 µM | 3.93 µM | 1.83 µM | 5.36 µM | 2.04 µM | 5.55 µM | 1.99 µM | 4.29 µM | 1.44 µM | 2.95 µM | 2.45 µM | 10.7 µM | 1.79 µM | 3.64 µM | 1.92 µM | 4.03 µM |
| O=C(CCCc1ccc(N(CCCl)CCCl)cc1)NCc1ccccc1 | 7.15 µM | 40.8 µM | 6.88 µM | 60.7 | 6.4 µM | 73.4 µM | 2.89 µM | 11.6 µM | 18.7 µM | > 100 µM | 17.2 µM | > 100 µM | 4.57 µM | 20.7 µM | 21.6 µM | 91.5 µM | 3.23 µM | 28.6 µM | 13.7 µM | 38.1 µM |
